# Source: publication PMC10644720 (Frontiers in Pharmacology, 2023)
# Key:
# [1] = target: T1, Recombinant human GPVI protein (Homo sapiens, UniProt Q9HCN6); test: Surface plasmon resonance (SPR); conditions: Biacore S200, 25°C, 1:1 binding model
# T1 construct: purchased MedChemExpress HY-P70180
# T1 sequence (Q9HCN6 21-267 limits assumed): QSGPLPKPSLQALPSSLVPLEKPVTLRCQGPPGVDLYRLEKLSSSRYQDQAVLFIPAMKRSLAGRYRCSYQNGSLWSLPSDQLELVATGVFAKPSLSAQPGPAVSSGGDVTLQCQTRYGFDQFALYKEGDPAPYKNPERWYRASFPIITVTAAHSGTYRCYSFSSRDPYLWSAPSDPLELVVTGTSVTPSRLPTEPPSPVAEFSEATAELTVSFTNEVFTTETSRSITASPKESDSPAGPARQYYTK
# Protocol: The SPR experiment was performed on a Biacore S200 instrument (GE Healthcare; Uppsala, Sweden) at 25°C. Recombinant human GPVI protein, rhGPVI (Cat. HY-P70180; MedChemExpress), was immobilized at the level of 4,400 response units, with 10 mM sodium acetate buffer (pH 4.5) on a Series S CM5 Sensor Chip (Cat. 29104988; cytiva) at the concentration of 50 μg/mL.
# [2] = system: mesenteric artery thrombosis; test: Ferric chloride-induced mesenteric thrombosis in mice; format: in vivo, C57BL/6 mice; conditions: luteolin 35 μM/kg or aspirin 0.5 mM/kg i.p., 30 min before FeCl3
# Protocol: A method reported in the literature was used to observe mesenteric artery thrombosis in mice ([Bonnard and […], 2015]). […] The mice were anesthetized by an intraperitoneal injection of pentobarbital (45 mg/kg). They were given an intraperitoneal injection of DMSO, luteolin, or aspirin. They were also given an orbital vein injection of 5 μg/kg rhodamine (Cat No. 83697-250 MG; Sigma-Aldrich, St. Louis, MO, United States) ([Bonnard and […], 2015]), respectively. The mesenteric vessels were exposed by opening the abdominal cavity, and small mesenteric arteries with a diameter of approximately 150-250 μm were selected under the microscope. […] During thrombosis, images were taken every 1 min for the first 10 min and every 5 min after 10 min using an MSHOT MD50 camera (Micro Shot Technology Ltd., Guangzhou, China) and an Olympus ix73 microscope (Olympus Corp., Shinjuku, Japan). […] The size of the thrombus formation was calculated using ImageJ software.
# human washed platelets = test: Platelet intracellular Ca2+ release assay (Fluo-3AM); format: cell-based; conditions: collagen (10 μg/mL)- and convulxin (5 ng/mL)-induced
# Protocol: The assay was performed as previously reported with minor modifications ([Arthur et al., 2012]; [Ye et al., 2020]). Briefly, WPs (500 × 10^9/L) were labeled with 5 μM Fluo-3AM (Cat No. IF0150; Solarbio) or 10 μM DCFH-DA (Cat No. D6883; Sigma, St. Louis, MO, United States) at 37°C for 30 min protected from light. […] In addition, 1 mM CaCl2 and collagen or convulxin were added to start the reaction. Ca^2+ release and ROS production were analyzed using a Fluoroskan Ascent fluorometer (Thermo Fisher, Waltham, Massachusetts, US) at excitation (ex)/emission (em) = 490/530 nm, and the curves were plotted in real-time.
# GPVI signaling = test: Western blot of ITAM and MAPK signaling molecules; format: cell-based, human; conditions: convulxin-induced
# Protocol: A lysis buffer (5x, PBS, PH7.4, comprising 2.5% sodium dodecyl sulfate [SDS], 5% deoxycholate, 5% vol/vol Triton X-100, phosphatase and proteinase inhibitors cocktails) was used to lyse the cells on ice for 30 min. The platelet lysate was centrifuged at 12,000 rpm for 10 min at 4°C. The supernatant was added to 5× protein loading buffer and boiled. The proteins were separated by 10% SDS-PAGE gels and transferred to membranes. The PVDF membranes were blocked in EveryBlot Blocking buffer (Cat No. 12010020; Bio-Rad, Hercules, CA, United States) for 10 min. […] The intensity of the target bands was assessed by ImageJ software.
structure (smiles),measurement,setting,value
O=c1cc(-c2ccc(O)c(O)c2)oc2cc(O)cc(O)c12 [Luteolin],K a,[1],"7,227 m^−1s^−1"
same,K d,[1],0.03 s⁻¹
same,Kd,[1],4.13 µM
same,time of clot obstruction of blood vessels,[2],significantly prolong
same,time of initial thrombus formation,[2],Neither the 0.5 mM/kg aspirin group or 35 μM/kg luteolin group prolonged
same,platelet calcium release,human washed platelets,dose-dependently inhibited
same,phosphorylation of MAPK and ITAM,"GPVI signaling; Erk 1/2, SAPK/JNK, p38 MAPK",significant inhibitory effect
same,"phosphorylation of Src, Syk, PLCγ2, Akt and GSK-3β",GPVI signaling; non-aggregating conditions,inhibited
